Experiments:
Assay type in all cases: in vivo
[1] = system: redroot pigweed (Amaranthus retroflexus, AMARE); assay: Pre-emerge greenhouse herbicide test, phytotoxicity rating; settings: 14 days after application, rating scale 0-100
Method in brief: (§1)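 Seeds sown in sandy loam one day before track-sprayer application of acetone solutions at 125–1000 g ai/ha (187 l/ha), then surface-watered to incorporate and bottom-watered. Injury scored visually at 14 days on a 0–100 scale (0 no damage, 100 complete death).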

[2] = system: large crabgrass (Digitaria sanguinalis, DIGSA); assay: as above; settings: 14 days after application, rating scale 0-100
Method in brief: as §1

[3] = system: velvetleaf (Abutilon theophrasti, ABUTH); assay: as above; settings: 14 days after application, rating scale 0-100
Method in brief: as §1

[4] = system: lambsquarters (Chenopodium album, CHEAL); assay: as above; settings: 14 days after application, rating scale 0-100
Method in brief: as §1

[5] = system: green foxtail (Setaria viridis, SETVI); assay: as above; settings: 14 days after application, rating scale 0-100
Method in brief: as §1

[6] = system: common ragweed (Ambrosia artemisiifolia L., AMBEL); assay: as above; settings: 14 days after application, rating scale 0-100
Method in brief: as §1

[7] = system: Johnsongrass (Sorghum halepense, SORHA); assay: as above; settings: 14 days after application, rating scale 0-100
Method in brief: as §1

[8] = system: ivyleaf morningglory (Ipomoea hederacea, IPOHE); assay: as above; settings: 14 days after application, rating scale 0-100
Method in brief: as §1

[9] = system: sicklepod (Cassia obtusifolia, CASOB); assay: as above; settings: 14 days after application, rating scale 0-100
Method in brief: as §1

[10] = system: barnyardgrass (Echinochloa crusgalli, ECHCG); assay: as above; settings: 14 days after application, rating scale 0-100
Method in brief: as §1

[11] = system: redroot pigweed (Amaranthus retroflexus, AMARE); assay: Post-emerge greenhouse herbicide test, phytotoxicity rating; settings: 14 days after application
Method in brief: (§2)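 Plants at the 2-3 leaf stage, sown 8-21 days earlier, were track-sprayed post-emergence with compound in acetone plus 0.25% v/v non-ionic surfactant at 63-1000 g ai/ha (187 l/ha). Damage was rated at 14 days on a 0-100 scale (0 none, 100 all plants dead), for both crop injury and weed control.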

[12] = system: large crabgrass (Digitaria sanguinalis, DIGSA); assay: as above; settings: 14 days after application
Method in brief: as §2

[13] = system: velvetleaf (Abutilon theophrasti, ABUTH); assay: as above; settings: 14 days after application
Method in brief: as §2

[14] = system: lambsquarters (Chenopodium album, CHEAL); assay: as above; settings: 14 days after application
Method in brief: as §2

[15] = system: green foxtail (Setaria viridis, SETVI); assay: as above; settings: 14 days after application
Method in brief: as §2

[16] = system: Johnsongrass (Sorghum halepense, SORHA); assay: as above; settings: 14 days after application
Method in brief: as §2

[17] = system: ivyleaf morningglory (Ipomoea hederacea, IPOHE); assay: as above; settings: 14 days after application
Method in brief: as §2

[18] = system: sicklepod (Cassia obtusifolia, CASOB); assay: as above; settings: 14 days after application
Method in brief: as §2

[19] = system: barnyardgrass (Echinochloa crusgalli, ECHCG); assay: as above; settings: 14 days after application
Method in brief: as §2

[20] = system: upland rice (Oryza sp., var.Tebonnet, RICE); assay: Post-emerge greenhouse test, crop damage rating; settings: 14 days after application
Method in brief: as §2

[21] = system: field corn (Zea mays L., var. Dekalb 535, CORN); assay: Post-emerge greenhouse test, crop damage rating; settings: 14 days after application
Method in brief: as §2

[22] = system: soybean (Glycine max L., var. Pella 86, SOY); assay: Pre-emerge greenhouse test, crop damage rating; settings: 14 days after application, rating scale 0-100
Method in brief: as §1

[23] = system: upland rice (Oryza sp., var.Tebonnet, RICE); assay: Pre-emerge greenhouse test, crop damage rating; settings: 14 days after application, rating scale 0-100
Method in brief: as §1

[24] = system: field corn (Zea mays L., var. Dekalb 535, CORN); assay: Pre-emerge greenhouse test, crop damage rating; settings: 14 days after application, rating scale 0-100
Method in brief: as §1

[25] = system: soybean (Glycine max L., var. Pella 86, SOY); assay: Post-emerge greenhouse test, crop damage rating; settings: 14 days after application
Method in brief: as §2

[26] = system: common ragweed (Ambrosia artemisiifolia L., AMBEL); assay: Post-emerge greenhouse herbicide test, phytotoxicity rating; settings: 14 days after application
Method in brief: as §2

In the case of Cc1nn(-c2cc(Oc3ncccn3)c(Cl)cc2F)c(=O)n1C(F)F [Compound 3-1, 1-[4-chloro-2-fluoro-5-(2-pyrimidyloxy)phenyl]-4-difluoromethyl-3-methyl-1,4-dihydro-1,2,4-triazolin-5-one], the “phytotoxicity rating AMARE” value ([1]; 125 g ai/ha) was 100, the “phytotoxicity rating AMARE” value ([1]; 500 g ai/ha) was 100 and the “phytotoxicity rating DIGSA” value ([2]; 125 g ai/ha) was 100. For the same compound, the “phytotoxicity rating DIGSA” value ([2]; 500 g ai/ha) was 100, the “phytotoxicity rating ABUTH” value ([3]; 125 g ai/ha) was 100 and the “phytotoxicity rating ABUTH” value ([3]; 500 g ai/ha) was 100. The “phytotoxicity rating CHEAL” value ([4]; 125 g ai/ha) was 100, the “phytotoxicity rating CHEAL” value ([4]; 500 g ai/ha) was 100 and the “phytotoxicity rating SETVI” value ([5]; 125 g ai/ha) was 100. For the same compound, the “phytotoxicity rating SETVI” value ([5]; 500 g ai/ha) was 100, the “phytotoxicity rating AMBEL” value ([6]; 125 g ai/ha) was 100 and the “phytotoxicity rating AMBEL” value ([6]; 500 g ai/ha) was 100. The “phytotoxicity rating SORHA” value ([7]; 125 g ai/ha) was 100, the “phytotoxicity rating SORHA” value ([7]; 500 g ai/ha) was 100 and the “phytotoxicity rating IPOHE” value ([8]; 125 g ai/ha) was 100. The “phytotoxicity rating IPOHE” value ([8]; 500 g ai/ha) was 100, the “phytotoxicity rating CASOB” value ([9]; 125 g ai/ha) was 100 and the “phytotoxicity rating CASOB” value ([9]; 500 g ai/ha) was 100. For the same compound, the “phytotoxicity rating ECHCG” value ([10]; 125 g ai/ha) was 100, the “phytotoxicity rating ECHCG” value ([10]; 500 g ai/ha) was 100 and the “AMARE phytotoxicity rating (0-100)” value ([11]; 63 g al/ha) was 95. For the same compound, the “AMARE phytotoxicity rating (0-100)” value ([11]; 500 g al/ha) was 100, the “DIGSA phytotoxicity rating (0-100)” value ([12]; 63 g al/ha) was 80 and the “DIGSA phytotoxicity rating (0-100)” value ([12]; 500 g al/ha) was 100. The “ABUTH phytotoxicity rating (0-100)” value ([13]; 63 g al/ha) was 100, the “ABUTH phytotoxicity rating (0-100)” value ([13]; 500 g al/ha) was 100 and the “CHEAL phytotoxicity rating (0-100)” value ([14]; 63 g al/ha) was 95. The “CHEAL phytotoxicity rating (0-100)” value ([14]; 500 g al/ha) was 100, the “SETVI phytotoxicity rating (0-100)” value ([15]; 63 g al/ha) was 95 and the “SETVI phytotoxicity rating (0-100)” value ([15]; 500 g al/ha) was 100. For the same compound, the “SORHA phytotoxicity rating (0-100)” value ([16]; 63 g al/ha) was 80, the “SORHA phytotoxicity rating (0-100)” value ([16]; 500 g al/ha) was 100 and the “IPOHE phytotoxicity rating (0-100)” value ([17]; 63 g al/ha) was 100. For the same compound, the “IPOHE phytotoxicity rating (0-100)” value ([17]; 500 g al/ha) was 100, the “CASOB phytotoxicity rating (0-100)” value ([18]; 63 g al/ha) was 90 and the “CASOB phytotoxicity rating (0-100)” value ([18]; 500 g al/ha) was 100. The “ECHCG phytotoxicity rating (0-100)” value ([19]; 63 g al/ha) was 70, the “ECHCG phytotoxicity rating (0-100)” value ([19]; 500 g al/ha) was 100 and the “RICE crop damage rating (0-100)” value ([20]; 63 g al/ha) was 70. For the same compound, the “RICE crop damage rating (0-100)” value ([20]; 500 g al/ha) was 100, the “CORN crop damage rating (0-100)” value ([21]; 63 g al/ha) was 25 and the “CORN crop damage rating (0-100)” value ([21]; 500 g al/ha) was 100. For the same compound, the “crop damage rating SOY” value ([22]; 125 g ai/ha) was 90, the “crop damage rating SOY” value ([22]; 500 g ai/ha) was 100 and the “crop damage rating RICE” value ([23]; 125 g ai/ha) was 99. For the same compound, the “crop damage rating RICE” value ([23]; 500 g ai/ha) was 100, the “crop damage rating CORN” value ([24]; 125 g ai/ha) was 90 and the “crop damage rating CORN” value ([24]; 500 g ai/ha) was 100. For the same compound, the “SOY crop damage rating (0-100)” value ([25]; 63 g al/ha) was 100, the “SOY crop damage rating (0-100)” value ([25]; 500 g al/ha) was 100 and the “AMBEL phytotoxicity rating (0-100)” value ([26]; 63 g al/ha) was 70. The “AMBEL phytotoxicity rating (0-100)” value ([26]; 500 g al/ha) was 100.
For O=c1n(-c2cc(Oc3ccc([N+](=O)[O-])cc3C(F)(F)F)c(Cl)cc2F)c(=S)n2n1CCCC2 [Compound 8-14], the “phytotoxicity rating AMARE” value ([1]; 125 g ai/ha) was 70, the “phytotoxicity rating AMARE” value ([1]; 500 g ai/ha) was 95 and the “phytotoxicity rating DIGSA” value ([2]; 125 g ai/ha) was 0. The “phytotoxicity rating DIGSA” value ([2]; 500 g ai/ha) was 20, the “phytotoxicity rating ABUTH” value ([3]; 125 g ai/ha) was 30 and the “phytotoxicity rating ABUTH” value ([3]; 500 g ai/ha) was 60. The “phytotoxicity rating CHEAL” value ([4]; 125 g ai/ha) was 80, the “phytotoxicity rating CHEAL” value ([4]; 500 g ai/ha) was 100 and the “phytotoxicity rating SETVI” value ([5]; 125 g ai/ha) was 0. For the same compound, the “phytotoxicity rating SETVI” value ([5]; 500 g ai/ha) was 50, the “phytotoxicity rating AMBEL” value ([6]; 125 g ai/ha) was 0 and the “phytotoxicity rating AMBEL” value ([6]; 500 g ai/ha) was 30. For the same compound, the “phytotoxicity rating SORHA” value ([7]; 125 g ai/ha) was 0, the “phytotoxicity rating SORHA” value ([7]; 500 g ai/ha) was 0 and the “phytotoxicity rating IPOHE” value ([8]; 125 g ai/ha) was 0. For the same compound, the “phytotoxicity rating IPOHE” value ([8]; 500 g ai/ha) was 0, the “phytotoxicity rating CASOB” value ([9]; 125 g ai/ha) was 0 and the “phytotoxicity rating CASOB” value ([9]; 500 g ai/ha) was 0. For the same compound, the “phytotoxicity rating ECHCG” value ([10]; 125 g ai/ha) was 0, the “phytotoxicity rating ECHCG” value ([10]; 500 g ai/ha) was 0 and the “AMARE phytotoxicity rating (0-100)” value ([11]; 63 g al/ha) was 70. For the same compound, the “AMARE phytotoxicity rating (0-100)” value ([11]; 500 g al/ha) was 90, the “DIGSA phytotoxicity rating (0-100)” value ([12]; 63 g al/ha) was 0 and the “DIGSA phytotoxicity rating (0-100)” value ([12]; 500 g al/ha) was 0. For the same compound, the “ABUTH phytotoxicity rating (0-100)” value ([13]; 63 g al/ha) was 95, the “ABUTH phytotoxicity rating (0-100)” value ([13]; 500 g al/ha) was 95 and the “CHEAL phytotoxicity rating (0-100)” value ([14]; 63 g al/ha) was 80. For the same compound, the “CHEAL phytotoxicity rating (0-100)” value ([14]; 500 g al/ha) was 90, the “SETVI phytotoxicity rating (0-100)” value ([15]; 63 g al/ha) was 30 and the “SETVI phytotoxicity rating (0-100)” value ([15]; 500 g al/ha) was 20. The “SORHA phytotoxicity rating (0-100)” value ([16]; 63 g al/ha) was 0, the “SORHA phytotoxicity rating (0-100)” value ([16]; 500 g al/ha) was 0 and the “IPOHE phytotoxicity rating (0-100)” value ([17]; 63 g al/ha) was 80. For the same compound, the “IPOHE phytotoxicity rating (0-100)” value ([17]; 500 g al/ha) was 85, the “CASOB phytotoxicity rating (0-100)” value ([18]; 63 g al/ha) was 40 and the “CASOB phytotoxicity rating (0-100)” value ([18]; 500 g al/ha) was 30. The “ECHCG phytotoxicity rating (0-100)” value ([19]; 63 g al/ha) was 0, the “ECHCG phytotoxicity rating (0-100)” value ([19]; 500 g al/ha) was 0 and the “RICE crop damage rating (0-100)” value ([20]; 63 g al/ha) was 0. The “RICE crop damage rating (0-100)” value ([20]; 500 g al/ha) was 0, the “CORN crop damage rating (0-100)” value ([21]; 63 g al/ha) was 5 and the “CORN crop damage rating (0-100)” value ([21]; 500 g al/ha) was 5. The “crop damage rating SOY” value ([22]; 125 g ai/ha) was 0, the “crop damage rating SOY” value ([22]; 500 g ai/ha) was 0 and the “crop damage rating RICE” value ([23]; 125 g ai/ha) was 0. For the same compound, the “crop damage rating RICE” value ([23]; 500 g ai/ha) was 0, the “crop damage rating CORN” value ([24]; 125 g ai/ha) was 0 and the “crop damage rating CORN” value ([24]; 500 g ai/ha) was 0. The “SOY crop damage rating (0-100)” value ([25]; 63 g al/ha) was 30, the “SOY crop damage rating (0-100)” value ([25]; 500 g al/ha) was 30 and the “AMBEL phytotoxicity rating (0-100)” value ([26]; 63 g al/ha) was 40. The “AMBEL phytotoxicity rating (0-100)” value ([26]; 500 g al/ha) was 60.

Source: US6479435B1, “Diaryl ethers and processes for their preparation and herbicidal and desiccant compositions containing them” (ISK Americas Incorporated, priority 1997, dated 2002)
